According to article PMC11995724, “Antibiotic target discovery by integrated phenotypic and activity-based profiling of electrophilic fragments” (Cell chemical biology, 2025):
Structures can show the parent of a compound that is named as a salt.

Assay: in vitro
Settings: human, hek293t cells

SMILES | viability at 48 h, 25 µM [%]
CCc1ccccc1NC(=O)CNC(=O)CCl [4-I08, 2-chloro-N-{[(2-ethylphenyl)carbamoyl]methyl}acetamide] | 0.8
O=C(CCl)Nc1ccc(Cl)c(C(F)(F)F)c1 [4-I09, 2-chloro-N-[4-chloro-3-(trifluoromethyl)phenyl]acetamide] | 0.299
CC(Cl)C(=O)NCC1CCCCC1 (centres unmarked) [4-I10, 2-chloro-N-(cyclohexylmethyl)propanamide] | 90.9
O=C(CCl)NCC1(c2ccc3c(c2)OCCO3)CCCC1 [4-I11, 2-chloro-N-{[1-(2,3-dihydro-1,4-benzodioxin-6-yl)cyclopentyl]methyl}acetamide] | 0.867
CC(Cl)C(=O)Nc1cc2c(cc1Cl)C(=O)c1ccccc1C2=O (centres unmarked) [4-I12, 2-chloro-N-(3-chloro-9,10-dioxo-9,10-dihydroanthracen-2-yl)propanamide] | 79.4
O=C(CCl)N(Cc1ccc(F)cc1)C1CCCCC1 [4-I13, 2-chloro-N-cyclohexyl-N-[(4-fluorophenyl)methyl]acetamide] | 0.726
COc1ccc(NC(=O)C(C)Cl)cc1Cl (centres unmarked) [4-I14, 2-chloro-N-(3-chloro-4-methoxyphenyl)propanamide] | 90.7
O=C(CCl)Nc1cc(C2CC2)nn1-c1ccccc1 [4-I15, 2-chloro-N-(3-cyclopropyl-1-phenyl-1H-pyrazol-5-yl)acetamide] | 1.44
CNC(=O)CC(NC(=O)CCl)c1ccc(F)cc1F (centres unmarked) [4-I16, 3-(2-chloroacetamido)-3-(2,4-difluorophenyl)-N-methylpropanamide] | 18.5
O=C(CCl)NC(=O)Nc1ccccc1 [4-I17, 3-(2-chloroacetyl)-1-phenylurea] | 64
CC(Cl)C(=O)Nc1ccc([N+](=O)[O-])cc1 (centres unmarked) [4-I18, 2-chloro-N-(4-nitrophenyl)propanamide] | 86.7
CCN(CC(=O)NC1CCS(=O)(=O)C1)C(=O)CCl (centres unmarked) [4-I19, 2-chloro-N-{[(1,1-dioxo-1lambda6-thiolan-3-yl)carbamoyl]methyl}-N-ethylacetamide] | 1.33
O=C(CCl)N1N=C(c2ccccc2)CC1c1ccccc1 (centres unmarked) [4-I20, 2-chloro-1-(3,5-diphenyl-4,5-dihydro-1H-pyrazol-1-yl)ethan-1-one] | 0.141
COc1ccc(NC(=O)CCl)c([N+](=O)[O-])c1 [4-I21, 2-chloro-N-(4-methoxy-2-nitrophenyl)acetamide] | 35.6
Cc1ccc(C2CC(c3cccs3)=NN2C(=O)CCl)cc1 (centres unmarked) [4-I22, 2-chloro-1-[5-(4-methylphenyl)-3-(thiophen-2-yl)-4,5-dihydro-1H-pyrazol-1-yl]ethan-1-one] | 0.369
O=C(CCl)Nc1cc(C2CCCC2)nn1-c1ccccc1 [4-J03, 2-chloro-N-(3-cyclopentyl-1-phenyl-1H-pyrazol-5-yl)acetamide] | 0.358
O=C(CCl)Nc1cc(C(F)(F)F)ccc1Cl [4-J04, 2-chloro-N-[2-chloro-5-(trifluoromethyl)phenyl]acetamide] | 1.3
O=C(CCl)Nc1ccccc1SCc1ccccc1 [4-J05, N-[2-(benzylsulfanyl)phenyl]-2-chloroacetamide] | 0.437
O=C(CCl)Nc1ccccc1C(=O)c1ccccc1 [4-J06, N-(2-benzoylphenyl)-2-chloroacetamide] | 1.12

SMILES | viability at 48 h, 25 µM [%]
O=C(CCl)N1CCN(S(=O)(=O)c2ccc([N+](=O)[O-])cc2)CC1 [4-J07, 2-chloro-1-[4-(4-nitrobenzenesulfonyl)piperazin-1-yl]ethan-1-one] | -0.414
CN(C)S(=O)(=O)c1cccc(NC(=O)CCl)c1 [4-J08, 2-chloro-N-[3-(dimethylsulfamoyl)phenyl]acetamide] | 0.946
O=C(CCl)Nc1ccc(Oc2ccccc2)cc1 [4-J09, 2-chloro-N-(4-phenoxyphenyl)acetamide] | -0.178
O=C(CCl)Nc1ccc(OC(F)F)cc1 [4-J10, 2-chloro-N-[4-(difluoromethoxy)phenyl]acetamide] | 1.07
COc1ccc(C(NC(=O)CCl)c2ccccc2)cc1 (centres unmarked) [4-J11, 2-chloro-N-[(4-methoxyphenyl)(phenyl)methyl]acetamide] | 0.827
CCc1cc(SC#N)cc(CC)c1NC(=O)CCl [4-J12, 2-chloro-N-[4-(cyanosulfanyl)-2,6-diethylphenyl]acetamide] | 84.8
CC(Cl)C(=O)NC(=O)NC1CCS(=O)(=O)C1 (centres unmarked) [4-J13, 3-(2-chloropropanoyl)-1-(1,1-dioxo-1lambda6-thiolan-3-yl)urea] | 94.7
O=C(CCl)NC(c1ccccc1)c1cccs1 (centres unmarked) [4-J14, 2-chloro-N-[phenyl(thiophen-2-yl)methyl]acetamide] | 1.95
Cc1ccc(NC(=O)C(C)Cl)cc1 (centres unmarked) [4-J15, 2-chloro-N-(4-methylphenyl)propanamide] | 92.1
CCOc1ccc(NC(=O)CCl)cc1S(=O)(=O)N1CCCC1 [4-J16, 2-chloro-N-[4-ethoxy-3-(pyrrolidine-1-sulfonyl)phenyl]acetamide] | 1.41
CC(Cl)C(=O)Nc1ccc([N+](=O)[O-])cc1Cl (centres unmarked) [4-J17, 2-chloro-N-(2-chloro-4-nitrophenyl)propanamide] | 85.5
O=C(CCl)N(Cc1ccco1)C12CC3CC(CC(C3)C1)C2 [4-J18, N-(adamantan-1-yl)-2-chloro-N-[(furan-2-yl)methyl]acetamide] | 1.5
COC(=O)c1c(NC(=O)CCl)sc2c1CCC(C(C)(C)C)C2 (centres unmarked) [4-J19, methyl 6-tert-butyl-2-(2-chloroacetamido)-4,5,6,7-tetrahydro-1-benzothiophene-3-carboxylate] | 69.6
O=C(CN1CCN(C(=O)CCl)CC1)Nc1ccc(F)cc1 [4-J20, 2-[4-(2-chloroacetyl)piperazin-1-yl]-N-(4-fluorophenyl)acetamide hydrochloride] | 1.34
O=C(CCl)NCCc1nc2c(s1)CCCCC2 [4-J21, 2-chloro-N-(2-{4H,5H,6H,7H,8H-cyclohepta[d][1,3]thiazol-2-yl}ethyl)acetamide] | 15
CN(C)S(=O)(=O)c1ccccc1CNC(=O)CCl [4-J22, 2-chloro-N-{[2-(dimethylsulfamoyl)phenyl]methyl}acetamide] | 1.7
Cc1ccc(Oc2ccc(NC(=O)CCl)cc2)cc1 [4-K03, 2-chloro-N-[4-(4-methylphenoxy)phenyl]acetamide] | 0.0354
Cc1cc(C)cc(-c2cc(NC(=O)CCl)n(-c3ccccc3)n2)c1 [4-K04, 2-chloro-N-[3-(3,5-dimethylphenyl)-1-phenyl-1H-pyrazol-5-yl]acetamide] | -0.323
CN(CC(=O)Nc1ccccc1C(F)(F)F)C(=O)CCl [4-K05, 2-chloro-N-methyl-N-({[2-(trifluoromethyl)phenyl]carbamoyl}methyl)acetamide] | 0.506

SMILES | viability at 48 h, 25 µM [%]
Cc1ccc2sc(N(Cc3ccccc3)C(=O)CCl)nc2c1C [4-K06, N-benzyl-2-chloro-N-(4,5-dimethyl-1,3-benzothiazol-2-yl)acetamide] | -0.0749
CCN(CC)S(=O)(=O)c1ccc(NC(=O)CCl)cc1 [4-K07, 2-chloro-N-[4-(diethylsulfamoyl)phenyl]acetamide] | 0.364
CC(C)OC(=O)c1ccc(NC(=O)C(C)Cl)cc1 (centres unmarked) [4-K08, propan-2-yl 4-(2-chloropropanamido)benzoate] | 76.3
O=C(CCl)Nc1cc(Cl)cc(Cl)c1 [4-K09, 2-chloro-N-(3,5-dichlorophenyl)acetamide] | 1.41
CC(Cl)C(=O)Nc1ccc2c(c1)OCCCO2 (centres unmarked) [4-K10, 2-chloro-N-(3,4-dihydro-2H-1,5-benzodioxepin-7-yl)propanamide] | 85.4
CC(C)C(NC(=O)CCl)c1ccccc1 (centres unmarked) [4-K11, 2-chloro-N-(2-methyl-1-phenylpropyl)acetamide] | 3.98
COc1cc([N+](=O)[O-])ccc1NC(=O)C(C)Cl (centres unmarked) [4-K12, 2-chloro-N-(2-methoxy-4-nitrophenyl)propanamide] | 91.3
CC(C)N(C)S(=O)(=O)c1ccc(NC(=O)CCl)cc1 [4-K13, 2-chloro-N-{4-[methyl(propan-2-yl)sulfamoyl]phenyl}acetamide] | 1.64
CC(Cl)C(=O)NCCc1ccccc1 (centres unmarked) [4-K14, 2-chloro-N-(2-phenylethyl)propanamide] | 102
Cc1cc(N(CCC#N)C(=O)CCl)ccc1Cl [4-K15, 2-chloro-N-(4-chloro-3-methylphenyl)-N-(2-cyanoethyl)acetamide] | 0.75
CC1CC(C)CN(S(=O)(=O)c2ccc(NC(=O)CCl)cc2)C1 (centres unmarked) [4-K16, 2-chloro-N-{4-[(3,5-dimethylpiperidin-1-yl)sulfonyl]phenyl}acetamide] | 0.265
CCC(NC(=O)CCl)c1ccc(C)cc1 (centres unmarked) [4-K17, 2-chloro-N-[1-(4-methylphenyl)propyl]acetamide] | 2.62
O=C(CCl)NC(c1ccc(F)cc1)c1cccs1 (centres unmarked) [4-K18, 2-chloro-N-[(4-fluorophenyl)(thiophen-2-yl)methyl]acetamide] | 0.21
COc1ccc(C(NC(=O)CCl)C2CC2)cc1 (centres unmarked) [4-K19, 2-chloro-N-[cyclopropyl(4-methoxyphenyl)methyl]acetamide] | 2.83
O=C(CCl)N1N=C(c2cccs2)CC1c1ccccc1O (centres unmarked) [4-K20, 2-chloro-1-[5-(2-hydroxyphenyl)-3-(thiophen-2-yl)-4,5-dihydro-1H-pyrazol-1-yl]ethan-1-one] | -0.22
Cc1ccc(SCCNC(=O)CCl)cc1 [4-K21, 2-chloro-N-{2-[(4-methylphenyl)sulfanyl]ethyl}acetamide] | 1.65
O=C(CCl)N1N=C(c2ccc3ccccc3c2)CC1c1ccccc1 (centres unmarked) [4-K22, 2-chloro-1-[3-(naphthalen-2-yl)-5-phenyl-4,5-dihydro-1H-pyrazol-1-yl]ethan-1-one] | -0.201
CSc1ccccc1NC(=O)CN(C)C(=O)CCl [4-L03, 2-chloro-N-methyl-N-({[2-(methylsulfanyl)phenyl]carbamoyl}methyl)acetamide] | 0.451
